Patent US5968912A, “Methods for immunosuppressing” (Immune Modulation, Inc., priority 1997, dated 1999)

Columns and labels:
Assay type in all cases: cell-based, human
[1] = test system: mononuclear leukocytes (Two-way MLR); test: Two-way mixed leukocyte reaction (MLR), 3H-thymidine incorporation; details: for inhibition at 0.01 µM / inhibition at 0.1 µM / inhibition at 1 µM / inhibition at 10 µM / inhibition at 100 µM: Homo sapiens, Leukocyte
[2] = test system: Protein Kinase-C-Mediated T-cell Proliferation (PBMC); test: PK-C-mediated T-cell proliferation (PMA + A23187); details: PMA 1.25 ng/mL + A23187 0.25 μM; for Proliferation: 100 μM; for inhibition at 100 µM: Homo sapiens, T-cell
Description: Determination of the effect of HE-33 on PK-C-mediated signaling pathway
PBMC of a healthy volunteer were cultured in 96-well microtiter plates at 2×10^5 cells/well. […] Forskolin is an agent well known to increase intacellular cAMP levels by activating adenylate cyclase. Cultures were incubated for 3 days at 37° C. in a 5% CO2 incubator. Proliferative response was determined by incorporation of ^3 H-thymidine.. The results were expressed in CPM and % inhibition of proliferation (Table 7).

IL-2 = IL-2 production in PHA-stimulated PBMC cultures; design: % Inhibition of IL-2 production: concentration or dose not given beside the values
Description: (§1) Production of autocrine growth factors (IL-2, IL-4, IL-10 and Interferon-gamma) in PHA-stimulated human PBMC cultures
(§2) Culture supernatants were collected at the times indicated and frozen at -20° C. At the end of 96 hr., all supernatants were assayed by enzyme immunoassay for the presence of the cytokines: interleukin-2, -4, -10 and interferon (IFN)-gamma. Results were expressed in pg/mL concentration of cytokine and % inhibition of cytokine production.

IL-10 = IL-10 production in PHA-stimulated PBMC cultures; design: % Inhibition of IL-10 production: concentration or dose not given beside the values
Description: as §1, §2

IL-4 = IL-4 production in PHA-stimulated PBMC cultures; design: % Inhibition of IL-4 production: concentration or dose not given beside the values
Description: as §1, §2

Interferon-gamma = Interferon-gamma production in PHA-stimulated PBMC cultures; design: % Inhibition of IFN-γ production: concentration or dose not given beside the values
Description: as §1, §2

For Cc1ccc(S(=O)(=O)O[C@@H]2[C@@H]3OP(=O)(O)OC[C@H]3O[C@H]2n2cnc3c(N)ncnc32)cc1 [Compound 1-5, 2'-O-Tosyl-c-AMP], the inhibition at 0.01 µM [1] was 0%, the inhibition at 0.1 µM [1] was 16% and the inhibition at 1 µM [1] was 25%. The inhibition at 10 µM [1] was 24% and the inhibition at 100 µM [1] was 58%.

Compound CCCN(CCC)c1ncnc2c1ncn2[C@@H]1O[C@@H]2COP(=O)(O)O[C@H]2[C@H]1OS(=O)(=O)c1ccc(C)cc1 [Compound 1-15, N^6,N^6-di-n-Propyl-2'-O-tosyl-c-AMP] has an inhibition at 0.01 µM [1] of 0%, an inhibition at 0.1 µM [1] of 6% and an inhibition at 1 µM [1] of 9%. It also gave an inhibition at 10 µM [1] of 25% and an inhibition at 100 µM [1] of 99.4%.

CCCNc1ncnc2c1ncn2[C@@H]1O[C@@H]2COP(=O)(O)O[C@H]2[C@H]1O [Compound 1-16] was tested, and the inhibition at 0.01 µM [1] was 0%, the inhibition at 0.1 µM [1] was 2.2% and the inhibition at 1 µM [1] was 12.5%. For the same compound, the inhibition at 10 µM [1] was 90.7% and the inhibition at 100 µM [1] was 99.8%.

CCCCN(CCCC)c1ncnc2c1ncn2[C@@H]1O[C@@H]2COP(=O)(O)O[C@H]2[C@H]1OS(=O)(=O)c1ccc(C)cc1 [Compound 1-22] showed an inhibition at 0.01 µM [1] of 0%, an inhibition at 0.1 µM [1] of 7% and an inhibition at 1 µM [1] of 4%. It also gave an inhibition at 10 µM [1] of 0% and an inhibition at 100 µM [1] of 99%.

Compound CCCCN(CCCC)c1ncnc2c1ncn2[C@@H]1O[C@@H]2COP(=O)(O)O[C@H]2[C@H]1O [Compound 1-24] has an inhibition at 0.01 µM [1] of 0%, an inhibition at 0.1 µM [1] of 27% and an inhibition at 1 µM [1] of 78%. The inhibition at 10 µM [1] was 97%, the inhibition at 100 µM [1] was 100% and the “Inhibitory capacity on two-way MLR, in words” value ([1]; two-way MLR) was “significant inhibitory capacity”. It also gave a Proliferation [2] of 16 CPM and an inhibition at 100 µM [2] of 98%.

Work on CCCN(CCC)c1ncnc2c1nc(SCc1ccccc1)n2[C@@H]1O[C@@H]2COP(=O)(O)O[C@H]2[C@H]1O [Compound 1-42] yielded an inhibition at 1 µM [1] of 0%, an inhibition at 10 µM [1] of 31% and an inhibition at 100 µM [1] of 89%.

With CCCN(CCC)c1ncnc2c1ncn2[C@@H]1O[C@H](CO)[C@@H](O)[C@H]1O [Compound 1-46] the inhibition at 1 µM [1] was 12%, the inhibition at 10 µM [1] was 83% and the inhibition at 100 µM [1] was 98%.

CCN(CC)c1ncnc2c1ncn2[C@@H]1O[C@H](CO)[C@@H](O)[C@H]1O [Compound 1-50] gave an inhibition at 1 µM [1] of 13%, an inhibition at 10 µM [1] of 45% and an inhibition at 100 µM [1] of 88%.

With C=CC[C@@H]1/C=C(\C)C[C@H](C)C[C@H](OC)[C@H]2O[C@@](O)(C(=O)C(=O)N3CCCC[C@H]3C(=O)O[C@H](/C(C)=C/[C@@H]3CC[C@@H](O)[C@H](OC)C3)[C@H](C)[C@@H](O)CC1=O)[C@H](C)C[C@@H]2OC [Fk506, reference compound] the “% Inhibition of IL-2 production” value (IL-2; 24 hours) was 100%, the IL-2 production (IL-2; 24 hours) was 0.7 pg/mL and the “% Inhibition of IL-2 production” value (IL-2; 48 hours) was 97%. For the same compound, the IL-2 production (IL-2; 48 hours) was 16 pg/mL, the “% Inhibition of IL-2 production” value (IL-2; 72 hours) was 91% and the IL-2 production (IL-2; 72 hours) was 16 pg/mL. For the same compound, the “% Inhibition of IL-2 production” value (IL-2; 96 hours) was 0%, the IL-2 production (IL-2; 96 hours) was 23 pg/mL and the “% Inhibition of IL-10 production” value (IL-10; 24 hours) was 69%. For the same compound, the IL-10 production (IL-10; 24 hours) was 173 pg/mL, the “% Inhibition of IL-10 production” value (IL-10; 48 hours) was 77% and the IL-10 production (IL-10; 48 hours) was 235 pg/mL. The “% Inhibition of IL-10 production” value (IL-10; 72 hours) was 61%, the IL-10 production (IL-10; 72 hours) was 228 pg/mL and the “% Inhibition of IL-10 production” value (IL-10; 96 hours) was 76%. For the same compound, the IL-10 production (IL-10; 96 hours) was 200 pg/mL, the “% Inhibition of IL-4 production” value (IL-4; 24 hours) was 98% and the IL-4 production (IL-4; 24 hours) was 18 pg/mL. For the same compound, the “% Inhibition of IL-4 production” value (IL-4; 48 hours) was 99%, the IL-4 production (IL-4; 48 hours) was 17 pg/mL and the “% Inhibition of IL-4 production” value (IL-4; 72 hours) was 99%. For the same compound, the IL-4 production (IL-4; 72 hours) was 10 pg/mL, the “% Inhibition of IL-4 production” value (IL-4; 96 hours) was 93% and the IL-4 production (IL-4; 96 hours) was 10 pg/mL. For the same compound, the “% Inhibition of IFN-γ production” value (Interferon-gamma; 24 hours) was 100%, the IFN-γ production (Interferon-gamma; 24 hours) was 0 pg/mL and the “% Inhibition of IFN-γ production” value (Interferon-gamma; 48 hours) was 98%. The IFN-γ production (Interferon-gamma; 48 hours) was 155 pg/mL, the “% Inhibition of IFN-γ production” value (Interferon-gamma; 72 hours) was 92% and the IFN-γ production (Interferon-gamma; 72 hours) was 232 pg/mL. For the same compound, the “% Inhibition of IFN-γ production” value (Interferon-gamma; 96 hours) was 96% and the IFN-γ production (Interferon-gamma; 96 hours) was 225 pg/mL.

C=C[C@@]1(C)CC(=O)[C@]2(O)[C@@]3(C)[C@@H](O)CCC(C)(C)[C@@H]3[C@H](O)[C@H](OC(C)=O)[C@@]2(C)O1 [Forskolin, reference compound] was tested, and the inhibition at 0.01 µM [1] was 20%, the inhibition at 0.1 µM [1] was 28% and the inhibition at 1 µM [1] was 31%. For the same compound, the inhibition at 10 µM [1] was 55%, the inhibition at 100 µM [1] was 60% and the Proliferation [2] was 476 CPM. The inhibition at 100 µM [2] was 55%.

CCCC(=O)Nc1ncnc2c1ncn2[C@@H]1O[C@@H]2COP(=O)(O)O[C@H]2[C@H]1OC(=O)CCC [dbcAMP, reference compound] showed a Proliferation [2] of 645 CPM and an inhibition at 100 µM [2] of 38%.
